Columns and labels:
[1] = excess molar enthalpy (molar enthalpy of mixing); xn = mol fraction of the nth substance listed; settings: 298.15 K, 101 kPa, Liquid, 2-drop calorimetry
[2] = xn = mol fraction of the nth substance listed; settings: 101 kPa, Liquid; for speed of sound: Linear variable-path acoustic interferometer; for mass density: Vibrating tube method

Cc1ccccn1 [2-methylpyridine] + CCn1cc[n+](C)c1.F[B-](F)(F)F
[1]
Settings | excess molar enthalpy [kcal/mol]
x2 = 0.1132 | -0.0261
x2 = 0.1578 | -0.0354
x2 = 0.2087 | -0.0464
x2 = 0.2467 | -0.0538
x2 = 0.2976 | -0.0636
x2 = 0.3245 | -0.0684
x2 = 0.3789 | -0.078
x2 = 0.4235 | -0.0852
x2 = 0.4876 | -0.0945
x2 = 0.5123 | -0.0976
x2 = 0.5734 | -0.104
x2 = 0.6145 | -0.107
x2 = 0.6634 | -0.108
x2 = 0.7145 | -0.104
x2 = 0.7856 | -0.0953
x2 = 0.8265 | -0.086
x2 = 0.8723 | -0.0727
x2 = 0.9226 | -0.05

[2]
Settings | mass density, 293.15 K [kg/m3] | mass density, 298.15 K [kg/m3] | mass density, 303.15 K [kg/m3] | mass density, 308.15 K [kg/m3] | speed of sound, 293.15 K [m/s] | speed of sound, 298.15 K [m/s] | speed of sound, 303.15 K [m/s] | speed of sound, 308.15 K [m/s]
x2 = 0.1219 | 1013.9 | 1010.93 | 1006.33 | 1002.14 | 1438.3 | 1415.5 | 1397.7 | 1379.6
x2 = 0.1776 | 1043.45 | 1040.53 | 1036.16 | 1032.07 | 1457.5 | 1434.8 | 1417.2 | 1400
x2 = 0.2341 | 1071.82 | 1068.69 | 1064.53 | 1060.5 | 1478.2 | 1454.8 | 1438.3 | 1422
x2 = 0.2778 | 1092.45 | 1089.12 | 1085.1 | 1081.18 | 1494.2 | 1471 | 1454.4 | 1439.1
x2 = 0.3209 | 1111.76 | 1108.07 | 1104.33 | 1100.37 | 1509.3 | 1487.7 | 1470.8 | 1455.6
x2 = 0.3721 | 1133.09 | 1129.16 | 1125.57 | 1121.65 | 1527.3 | 1506.4 | 1490.5 | 1475.5
x2 = 0.4232 | 1152.77 | 1148.64 | 1145.21 | 1141.21 | 1544.8 | 1525.5 | 1509 | 1495
x2 = 0.4727 | 1170.31 | 1166.05 | 1162.72 | 1158.68 | 1560 | 1542.7 | 1525.2 | 1513.6
x2 = 0.5217 | 1186.07 | 1181.95 | 1178.63 | 1174.56 | 1572.9 | 1557.7 | 1540.6 | 1530.3
x2 = 0.5742 | 1201.42 | 1197.47 | 1194.21 | 1190.05 | 1585.5 | 1572.9 | 1555.3 | 1545.9
x2 = 0.6217 | 1214.02 | 1210.21 | 1206.93 | 1202.85 | 1595.6 | 1585 | 1567.5 | 1559
x2 = 0.6724 | 1226.14 | 1222.71 | 1219.36 | 1215.15 | 1603.9 | 1596.5 | 1577.8 | 1571.1
x2 = 0.7228 | 1236.96 | 1233.88 | 1230.44 | 1226.27 | 1609.8 | 1605.1 | 1586.2 | 1581.5
x2 = 0.7725 | 1246.69 | 1243.95 | 1240.41 | 1236.19 | 1614.7 | 1611.1 | 1592.1 | 1589
x2 = 0.8216 | 1255.54 | 1252.96 | 1249.32 | 1245.1 | 1618.6 | 1615.5 | 1596.9 | 1593.8
x2 = 0.8741 | 1264.27 | 1261.73 | 1257.98 | 1253.82 | 1621.8 | 1618.7 | 1600.8 | 1597.4
x2 = 0.9218 | 1271.82 | 1269.01 | 1265.26 | 1261.08 | 1624.6 | 1619.8 | 1603.5 | 1598.2
x2 = 0.9319 | 1273.41 | 1270.5 | 1266.74 | 1262.57 | 1625.3 | 1619.6 | 1604 | 1598.3

Source: the NIST ThermoML archive (doi:10.1016/j.jct.2012.07.007)
